Patent publication US11198673B2, “Therapeutic compounds and compositions” (eXIthera Pharmaceuticals, Inc., priority 2014, dated 2021)
Structures can show the parent of a compound that is named as a salt.

Experiments:
human Factor XIa = target: T1, human Factor XIa (Homo sapiens, UniProt P03951); experiment: Factor XIa enzyme inhibition assay (IC50, purified enzyme); assay type: biochemical; details: purified enzyme 0.25 nM, substrate 50 μM; read-out: Potency hFXIa IC50
T1 construct: Enzyme: Factor XIa; 0.25 μM in 50% glycerol (20 μg/mL)
Description: • Assay buffer: 20 mM Hepes, pH 7.4; 150 mM NaCl; 0.02% Tween 20 • Compounds: 10 mM stocks in DMSO • Substrate: 20 mM Glp-Pro-Arg-AMC, 25 mg/2.3 mL H2O (store at +4° C.) [Factor XIa, thrombin, and trypsin] • 20 mM Pro-Phe-Arg-AMC (Bachem I-1295), 25 mg/2.2 mL H2O (store at +4° C.) [Factor Xa] • Enzyme: Factor XIa; 0.25 μM in 50% glycerol (20 μg/mL) • Trypsin; 0.2 μM in 50% glycerol (4.8 μg/mL) • Thrombin; 0.2 μM in 50% glycerol (7.34 μg/mL) • Factor Xa; 0.2 μM in 50% glycerol (9.2 μg/mL) • These stocks are aliquoted ([…]) and stored at −20° C. Methods: • 1. Dilute the substrate to 100 μM in assay buffer (30 μL/6 mL). The enzyme is diluted to 0.5 nM just prior to use (12 μL/6 mL for Factor XIa; 15 μL/6 mL for all of the rest.) • 2. Pipette 50 μL of substrate into each well of the 96 well (12×8) microtiter plate. (Column 1 is used as the 100% activity control and receives no compound, and Column 12 is the blank and receives no enzyme.) Add an additional 46 μL to column 2. • 3. Pipette 4 μL of each compound into the appropriate well in column 2 of the plate (unknowns assayed in triplicate, standard assayed in duplicate). The final compound concentration will be 1/50th of the stock. • 4. Serially two-fold dilute the compound by mixing the sample in column 2, removing 50 μL to the next well (column 3), mix and remove to column 4, etc. until column 11. After mixing column 11, remove 50 μL and discard. • 5. Pipette 50 μL of buffer into column 12. Initiate the reaction by adding 50 μL of enzyme solution to each well of columns 1-11 as rapidly as possible. • 6. Read the plate in a spectrophotometer (SpectraMax) at 30° C., wherein each well is measured every 60 s for 30 min. For Factor Xa assays, each well is measured every 1 min for a total of 60 min. • 7. For Factor XIa assays, the compounds are assayed, in duplicate, at 3 different starting concentrations, 20, 2, and 0.2 μM; 1:10, 1:100, and 1:1000 dil'n of 10 mM stock. All data sets are combined for graphing and data fitting. • 8. Data can be used both for estimation of IC50 and for estimation of Kon.
Potential inhibitors of Factor XIa were evaluated using the following assay.
S-2366, pyroGlu-Pro-Arg-7-methylaminocourin (AMC), available from CPC Scientific, Inc., is based on the substrate pyro-Glu-Pro-Arg-pNA, available from Diapharma Group, Inc. (Columbus, Ohio), where the p-nitroanaline group is replaced with 7-methylaminocoumarin (AMC).
The final concentration of the substrate in the assay was 50 μM, and the final concentration of the enzyme was 0.25 nM. Inhibitors were tested by serial dilution over an appropriate range to yield a dose response curve for determination of the inhibitors' IC50 value. The assay mixture was read every minute for 30 minutes in order to generate progress curves. The plates were read in a Spectramax m5 Multimode Plate Reader (Molecular Devices LLC, Sunnyvale, Calif.). Dose response curves were fit to Equation 1 below in which A is the maximum inhibition, B is the minimum inhibition, C is the IC50, and D is the Hill coefficient. [(A−B)/(1+(X/C)^D)]+B (Equation 1)

[1] = β-Lactam stability in rat plasma; assay type: in vitro ADME; details: normal rat plasma, room temperature; read-out: Rat Plasma Stability (T1/2; min)
Description: Normal rat plasma, stored at −80° C.
• 1. Place 6 μL of each compound into 0.5 mL microcentrifuge tubes or 96-well U-bottom, polypropylene microtiter plate • 2. Place 40 μL of acetonitrile (AcN) into 0.5 mL microcentrifuge tubes labeled 1-9 • 3. Add 114 μL of plasma to each compound • 4. Sample 10 μL of compound/plasma into AcN at 2, 10, 20, 30, 60, 90, 120, 240, and 480 min of incubation at room temperature • 5. Mix each time point after adding sample and place on ice. • 6. Centrifuge time points (12,000 rpm, 3 min), remove 15 μL of the supernatant and mix with 15 μL 0.1% TFA in a V-bottom microtiter plate. • 7. Place microtiter plate in autosampler of HPLC and analyze on Restek Pinnacle C18 column (2.1×100 mm). • 8. Generate extracted ion chromatogram for parent compound and parent compound+18 (H2O). Integrate extracted ion chromatograms (EIC) and plot % total peak area for parent and adduct versus time. Fit to a model of single phase exponential decay [Y=A0*exp(−k*x)+C]. T½ is equal to ln(2)/k.

T1 sequence (P03951 388-625 limits assumed): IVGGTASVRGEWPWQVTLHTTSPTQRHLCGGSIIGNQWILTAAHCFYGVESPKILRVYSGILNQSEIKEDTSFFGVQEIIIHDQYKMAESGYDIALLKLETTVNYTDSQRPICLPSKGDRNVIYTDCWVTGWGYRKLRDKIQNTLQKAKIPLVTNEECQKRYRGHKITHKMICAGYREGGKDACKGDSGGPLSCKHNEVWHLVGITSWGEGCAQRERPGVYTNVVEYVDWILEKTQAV
T1 sequence (P03951 19-387 partner limits assumed): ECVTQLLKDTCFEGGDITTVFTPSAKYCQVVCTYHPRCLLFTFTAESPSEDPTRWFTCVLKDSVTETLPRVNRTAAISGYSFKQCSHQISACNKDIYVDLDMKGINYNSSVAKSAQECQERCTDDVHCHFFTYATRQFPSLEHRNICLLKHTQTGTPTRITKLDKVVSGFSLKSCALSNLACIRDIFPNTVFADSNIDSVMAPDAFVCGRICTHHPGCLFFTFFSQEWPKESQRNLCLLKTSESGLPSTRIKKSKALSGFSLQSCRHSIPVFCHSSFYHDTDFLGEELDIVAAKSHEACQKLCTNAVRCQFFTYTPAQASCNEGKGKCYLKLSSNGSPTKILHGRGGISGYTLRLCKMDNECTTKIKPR

SMILES | IC50 (human Factor XIa) | half-life [1]
C[C@@H](NC(=O)N1C(=O)[C@H](Cc2ccnc(N)c2)[C@H]1C(N)=O)c1ccccc1 [Example 13, (2S,3R)-3-[(2-aminopyridin-4-yl)methyl]-4-oxo-N-1-[(1R)-1-phenylethyl]azetidine-1,2-dicarboxamide trifluoroacetate] | > 1 µM | –
O=C(O)[C@@H]1[C@@H](Cc2ccnc(Cl)c2)C(=O)N1C(=O)NC(c1ccccc1)c1ccccc1 [Example 51] | > 1 µM | –
CCCCCCOC(=O)Nc1cc(C[C@H]2C(=O)N(C(=O)NC(c3ccccc3)c3ccccc3)[C@@H]2C(=O)O)ccn1 [Example 56] | > 1 µM | > 1.67 h
CCCCCCOC(=O)Nc1cc(C[C@H]2C(=O)N(C(=O)NC(c3ccccc3)c3ccccc3)[C@@H]2C(=O)OCC)ccn1 [Example 57] | > 1 µM | < 1.67 h
CCOC(=O)[C@@H]1[C@@H](Cc2cccnc2)C(=O)N1C(=O)N[C@H](C)c1ccc2c(c1)OC(F)(F)O2 [Example 95] | > 1 µM | –
C[C@@H](NC(=O)N1C(=O)[C@H](Cc2ccc(Cl)nc2)[C@H]1C(=O)O)c1ccc2c(c1)OC(F)(F)O2 [Example 96] | > 1 µM | –
CCOC(=O)[C@@H]1[C@@H](Cc2ccc(Cl)nc2)C(=O)N1C(=O)N[C@H](C)c1ccc2c(c1)OC(F)(F)O2 [Example 97] | > 1 µM | < 1.67 h
C[C@@H](NC(=O)N1C(=O)[C@H](Cc2cncs2)[C@H]1C(=O)O)c1ccc2c(c1)OC(F)(F)O2 [Example 102] | > 1 µM | > 1.67 h
C[C@@H](NC(=O)N1C(=O)[C@H](Cc2cc(Cl)ccn2)[C@H]1C(=O)O)c1ccc2c(c1)OC(F)(F)O2 [Example 107] | > 1 µM | –
C[C@@H](NC(=O)N1C(=O)[C@H](Cc2cncc(Cl)c2)[C@H]1C(=O)O)c1ccc2c(c1)OC(F)(F)O2 [Example 108] | > 1 µM | –
C[C@@H](NC(=O)N1C(=O)[C@H](Cc2ccccn2)[C@H]1C(=O)O)c1ccc2c(c1)OC(F)(F)O2 [Example 114] | > 1 µM | –
O=C(O)[C@@H]1[C@@H](Cc2cccc(Br)c2)C(=O)N1C(=O)N[C@@H](C1CCCCC1)C(F)(F)F [Example 131] | > 1 µM | –
O=C(O)[C@@H]1[C@@H](Cc2cncc(Cl)c2)C(=O)N1C(=O)N[C@@H](C1CCCCC1)C(F)(F)F [Example 133] | > 1 µM | –
O=C(O)[C@@H]1[C@@H](Cc2cccc3c2OCO3)C(=O)N1C(=O)N[C@@H](C1CCCCC1)C(F)(F)F [Example 136] | 0.1 to 1 µM | –
O=C(O)[C@@H]1[C@@H](Cc2cccc3[nH]ncc23)C(=O)N1C(=O)N[C@@H](C1CCCCC1)C(F)(F)F [Example 138] | > 1 µM | –
O=C(O)[C@@H]1[C@@H](Cc2ccccc2)C(=O)N1C(=O)N[C@@H](C1CCCCC1)C(F)(F)F [Example 139] | > 1 µM | –
C[C@H](c1ccccc1)N(C)C(=O)N1C(=O)[C@H](CCc2cccc(Cl)c2)[C@H]1C(=O)O [Example 144] | > 1 µM | –
O=C(O)[C@@H]1[C@@H](CCc2ccccc2)C(=O)N1C(=O)N[C@@H](C1CCCCC1)C(F)(F)F [Example 145] | > 1 µM | –
O=C(O)[C@@H]1[C@@H](Cc2ccnc(O)c2)C(=O)N1C(=O)N[C@@H](C1CCCCC1)C(F)(F)F [Example 147] | > 1 µM | –
C[C@H](C1CCCCC1)N(C)C(=O)N1C(=O)[C@H](Cc2ccnc(N)c2)[C@H]1C(=O)O [Example 149] | 0.01 to 0.1 µM | –
CCOC(=O)[C@@H]1[C@@H](Cc2ccnc(NC(=O)OC(C)OC(=O)C(C)C)c2)C(=O)N1C(=O)N[C@H](C)C1CCCCC1 (stereo partly drawn) [Example 150] | 0.01 to 0.1 µM | < 1.67 h

SMILES | IC50 (human Factor XIa) | half-life [1]
CCOC(=O)[C@@H]1[C@@H](Cc2ccnc(N)c2)C(=O)N1C(=O)N(C)[C@H](C)C1CCCCC1 [Example 151] | 0.01 to 0.1 µM | < 1.67 h
O=C(O)[C@@H]1[C@@H](CCCc2ccccc2)C(=O)N1C(=O)N[C@@H](C1CCCCC1)C(F)(F)F [Example 152] | > 1 µM | –
O=C(O)[C@@H]1[C@@H](CCc2ccc(Cl)cc2)C(=O)N1C(=O)N[C@@H](C1CCCCC1)C(F)(F)F [Example 153] | > 1 µM | –
COc1cccc(CC[C@H]2C(=O)N(C(=O)N[C@@H](C3CCCCC3)C(F)(F)F)[C@@H]2C(=O)O)c1 [Example 154] | > 1 µM | –
Cc1cccc(CC[C@H]2C(=O)N(C(=O)N[C@@H](C3CCCCC3)C(F)(F)F)[C@@H]2C(=O)O)c1 [Example 155] | 0.1 to 1 µM | –
O=C(O)[C@@H]1[C@@H](CCc2cccc(Cl)c2)C(=O)N1C(=O)NC(c1ccccc1)c1ccccc1 [Example 157] | > 1 µM | –
C[C@@H](NC(=O)N1C(=O)[C@H](CCc2cccc(Cl)c2)[C@H]1C(=O)O)c1ccc2c(c1)OC(F)(F)O2 [Example 159] | 0.1 to 1 µM | –
CCCCCCOC(=O)Nc1cc(C[C@H]2C(=O)N(C(=O)NC(C)c3ccccc3)[C@@H]2C(=O)OCC)ccn1 (stereo partly drawn) [Example 160] | 0.1 to 1 µM | < 1.67 h
CC(C)OC(=O)[C@@H]1[C@@H](Cc2ccc(Cl)nc2)C(=O)N1C(=O)N[C@H](C)c1ccc2c(c1)OC(F)(F)O2 [Example 171] | > 1 µM | < 1.67 h
CCCCCCOC(=O)Nc1cc(C[C@H]2C(=O)N(C(=O)N[C@H](C)c3ccccc3)[C@@H]2C(=O)O)ccn1 [Example 175] | > 1 µM | > 1.67 h
C[C@@H](NC(=O)N1C(=O)[C@H](Cc2ccnc(Cl)c2)[C@H]1C(=O)O)c1ccccc1 [Example 190] | > 1 µM | –
C[C@@H](NC(=O)N1C(=O)[C@H](Cc2cccnc2)[C@H]1C(=O)O)c1ccc2c(c1)OC(F)(F)O2 [Example 191] | > 1 µM | –
CCCC(CCC)NC(=O)N1C(=O)[C@H](CCc2cccc(Cl)c2)[C@H]1C(=O)O [Example 192] | > 1 µM | –
O=C(O)[C@@H]1[C@@H](Cc2cccc(Cl)c2)C(=O)N1C(=O)N[C@@H](C1CCCCC1)C(F)(F)F [Example 193] | > 1 µM | –
O=C(O)[C@@H]1[C@@H](CCc2ccccc2Cl)C(=O)N1C(=O)N[C@@H](C1CCCCC1)C(F)(F)F [Example 194] | > 1 µM | –
O=C(O)[C@@H]1[C@@H](Cc2ccc(Cl)cc2)C(=O)N1C(=O)N[C@@H](C1CCCCC1)C(F)(F)F [Example 195] | > 1 µM | –
O=C(O)[C@@H]1[C@@H](Cc2ccccc2Cl)C(=O)N1C(=O)N[C@@H](C1CCCCC1)C(F)(F)F [Example 196] | > 1 µM | –
O=C(O)[C@@H]1[C@@H](CCc2cc(Cl)ccc2F)C(=O)N1C(=O)N[C@@H](C1CCCCC1)C(F)(F)F [Example 197] | 0.1 to 1 µM | –
O=C(O)[C@@H]1[C@@H](CCc2cc(Cl)ccc2Cl)C(=O)N1C(=O)N[C@@H](C1CCCCC1)C(F)(F)F [Example 198] | 0.1 to 1 µM | –
O=C(O)[C@@H]1[C@@H](CCc2cccc(Cl)c2)C(=O)N1C(=O)N[C@@H](C1CCCCCCC1)C(F)(F)F [Example 199] | 0.1 to 1 µM | –
O=C(O)[C@@H]1[C@@H](CCc2ccc(Br)s2)C(=O)N1C(=O)N[C@@H](C1CCCCC1)C(F)(F)F [Example 200] | > 1 µM | –
